Laboratory results as given in patent publication US20120122860A1, “SOLID FORMS OF SULFONAMIDES AND AMINO ACIDS” (Plexxikon, Inc., priority 2009, published 2012).

Columns and labels:
MAP4K4 = MAP4K4 (Homo sapiens, UniProt O95819); assay: Kinase activity assay, MAP4K4
TEC = molecular target: T1, TEC (Homo sapiens, UniProt P42680); assay: Kinase activity assay, TEC
T1 sequence (P42680 1-631): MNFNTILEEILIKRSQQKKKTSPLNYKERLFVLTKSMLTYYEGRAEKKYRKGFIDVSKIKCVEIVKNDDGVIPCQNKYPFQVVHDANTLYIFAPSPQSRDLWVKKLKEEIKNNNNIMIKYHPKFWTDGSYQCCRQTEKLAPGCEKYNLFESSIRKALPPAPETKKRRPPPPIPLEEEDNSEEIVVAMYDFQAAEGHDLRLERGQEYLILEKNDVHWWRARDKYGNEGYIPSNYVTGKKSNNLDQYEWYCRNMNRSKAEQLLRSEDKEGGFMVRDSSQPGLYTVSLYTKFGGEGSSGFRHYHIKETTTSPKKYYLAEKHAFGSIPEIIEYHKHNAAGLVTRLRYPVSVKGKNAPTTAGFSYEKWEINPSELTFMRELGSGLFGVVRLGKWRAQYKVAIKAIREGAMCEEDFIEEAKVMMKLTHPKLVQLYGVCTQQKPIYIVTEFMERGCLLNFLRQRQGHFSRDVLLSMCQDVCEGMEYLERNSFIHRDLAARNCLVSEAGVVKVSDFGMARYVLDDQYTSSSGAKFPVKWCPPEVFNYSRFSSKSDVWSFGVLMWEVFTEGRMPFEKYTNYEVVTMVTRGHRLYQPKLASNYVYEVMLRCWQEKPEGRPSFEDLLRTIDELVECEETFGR

Src = Src (Homo sapiens, UniProt P12931); assay: Kinase activity assay, Src
Src, sequence (P12931 whole entry): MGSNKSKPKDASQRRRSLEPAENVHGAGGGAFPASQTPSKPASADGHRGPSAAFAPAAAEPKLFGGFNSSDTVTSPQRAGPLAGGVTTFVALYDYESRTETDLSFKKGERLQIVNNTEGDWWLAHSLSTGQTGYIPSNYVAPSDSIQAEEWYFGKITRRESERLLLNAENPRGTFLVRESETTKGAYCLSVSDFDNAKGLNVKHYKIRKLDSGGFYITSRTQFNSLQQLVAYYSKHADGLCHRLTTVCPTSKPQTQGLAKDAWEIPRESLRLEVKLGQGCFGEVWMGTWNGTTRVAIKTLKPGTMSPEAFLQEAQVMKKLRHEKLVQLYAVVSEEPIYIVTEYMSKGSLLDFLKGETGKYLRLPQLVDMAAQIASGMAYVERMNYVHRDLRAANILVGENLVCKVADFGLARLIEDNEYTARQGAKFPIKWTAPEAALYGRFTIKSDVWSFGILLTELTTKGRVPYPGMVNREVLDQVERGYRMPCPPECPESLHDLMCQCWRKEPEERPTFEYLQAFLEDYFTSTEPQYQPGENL

B-Raf V600E = B-Raf V600E (Homo sapiens, UniProt P15056, V600E); assay: Kinase activity assay, B-Raf V600E; assay type: biochemical; conditions: read-out: activity toward kinase B-Raf V600E, IC50
B-Raf V600E, sequence (P15056 whole entry V600E): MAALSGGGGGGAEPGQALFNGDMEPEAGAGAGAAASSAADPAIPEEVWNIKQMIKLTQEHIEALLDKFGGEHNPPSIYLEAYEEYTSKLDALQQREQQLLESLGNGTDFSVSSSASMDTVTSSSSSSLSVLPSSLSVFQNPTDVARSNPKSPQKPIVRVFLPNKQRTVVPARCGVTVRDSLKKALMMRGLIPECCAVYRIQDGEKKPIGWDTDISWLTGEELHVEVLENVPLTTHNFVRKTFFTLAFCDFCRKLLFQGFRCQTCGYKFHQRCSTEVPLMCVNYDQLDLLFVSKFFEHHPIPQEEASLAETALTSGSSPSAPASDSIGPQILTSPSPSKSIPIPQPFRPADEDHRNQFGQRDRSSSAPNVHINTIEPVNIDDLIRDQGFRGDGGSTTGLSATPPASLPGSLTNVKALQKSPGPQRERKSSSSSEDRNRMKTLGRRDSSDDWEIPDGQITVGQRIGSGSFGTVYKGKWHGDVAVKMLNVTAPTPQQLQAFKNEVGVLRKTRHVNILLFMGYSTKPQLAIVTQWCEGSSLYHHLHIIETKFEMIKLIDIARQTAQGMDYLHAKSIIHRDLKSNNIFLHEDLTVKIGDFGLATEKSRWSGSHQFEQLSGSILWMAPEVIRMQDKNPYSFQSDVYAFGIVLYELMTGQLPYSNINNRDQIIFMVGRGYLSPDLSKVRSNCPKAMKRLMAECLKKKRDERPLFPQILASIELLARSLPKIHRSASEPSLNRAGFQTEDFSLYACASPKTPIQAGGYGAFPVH

Kdr = Kdr (Homo sapiens, UniProt P35968); assay: Kinase activity assay, Kdr
Kdr, sequence (P35968 20-1356): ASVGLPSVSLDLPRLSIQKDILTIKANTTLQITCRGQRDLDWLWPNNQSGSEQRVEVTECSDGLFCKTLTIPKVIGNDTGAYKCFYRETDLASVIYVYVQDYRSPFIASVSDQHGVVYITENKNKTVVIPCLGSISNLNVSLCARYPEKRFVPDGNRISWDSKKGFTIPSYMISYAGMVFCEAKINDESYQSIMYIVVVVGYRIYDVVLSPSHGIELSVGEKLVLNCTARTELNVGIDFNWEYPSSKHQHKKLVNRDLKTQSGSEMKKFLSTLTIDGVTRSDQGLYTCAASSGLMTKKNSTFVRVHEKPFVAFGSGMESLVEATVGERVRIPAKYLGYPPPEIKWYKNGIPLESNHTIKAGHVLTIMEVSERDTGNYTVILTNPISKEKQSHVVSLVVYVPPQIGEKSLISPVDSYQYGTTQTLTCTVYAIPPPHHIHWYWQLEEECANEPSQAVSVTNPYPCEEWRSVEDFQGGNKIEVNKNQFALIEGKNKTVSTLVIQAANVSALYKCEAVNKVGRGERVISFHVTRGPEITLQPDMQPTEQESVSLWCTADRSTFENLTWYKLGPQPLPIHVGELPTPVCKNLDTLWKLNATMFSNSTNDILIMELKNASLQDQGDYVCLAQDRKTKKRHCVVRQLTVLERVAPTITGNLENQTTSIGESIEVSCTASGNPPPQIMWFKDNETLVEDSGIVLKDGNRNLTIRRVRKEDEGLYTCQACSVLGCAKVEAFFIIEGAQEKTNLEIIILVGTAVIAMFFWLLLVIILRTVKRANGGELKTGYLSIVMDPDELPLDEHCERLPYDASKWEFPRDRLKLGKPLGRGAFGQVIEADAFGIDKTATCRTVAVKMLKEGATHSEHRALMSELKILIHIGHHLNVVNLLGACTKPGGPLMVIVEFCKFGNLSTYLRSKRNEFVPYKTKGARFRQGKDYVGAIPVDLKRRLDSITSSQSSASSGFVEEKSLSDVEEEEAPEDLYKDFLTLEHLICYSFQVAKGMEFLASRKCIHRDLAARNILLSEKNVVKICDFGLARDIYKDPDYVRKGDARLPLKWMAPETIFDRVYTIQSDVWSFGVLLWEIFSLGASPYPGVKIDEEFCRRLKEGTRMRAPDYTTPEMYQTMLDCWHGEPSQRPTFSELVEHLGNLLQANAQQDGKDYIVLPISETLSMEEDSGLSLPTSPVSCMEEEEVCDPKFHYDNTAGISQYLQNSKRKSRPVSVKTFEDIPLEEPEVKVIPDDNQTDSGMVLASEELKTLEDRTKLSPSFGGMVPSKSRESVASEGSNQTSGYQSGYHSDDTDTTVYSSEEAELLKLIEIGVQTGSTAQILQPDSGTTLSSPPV

C-Raf = C-Raf (Homo sapiens, UniProt P04049); assay: Kinase activity assay, C-Raf
C-Raf, sequence (P04049 whole entry): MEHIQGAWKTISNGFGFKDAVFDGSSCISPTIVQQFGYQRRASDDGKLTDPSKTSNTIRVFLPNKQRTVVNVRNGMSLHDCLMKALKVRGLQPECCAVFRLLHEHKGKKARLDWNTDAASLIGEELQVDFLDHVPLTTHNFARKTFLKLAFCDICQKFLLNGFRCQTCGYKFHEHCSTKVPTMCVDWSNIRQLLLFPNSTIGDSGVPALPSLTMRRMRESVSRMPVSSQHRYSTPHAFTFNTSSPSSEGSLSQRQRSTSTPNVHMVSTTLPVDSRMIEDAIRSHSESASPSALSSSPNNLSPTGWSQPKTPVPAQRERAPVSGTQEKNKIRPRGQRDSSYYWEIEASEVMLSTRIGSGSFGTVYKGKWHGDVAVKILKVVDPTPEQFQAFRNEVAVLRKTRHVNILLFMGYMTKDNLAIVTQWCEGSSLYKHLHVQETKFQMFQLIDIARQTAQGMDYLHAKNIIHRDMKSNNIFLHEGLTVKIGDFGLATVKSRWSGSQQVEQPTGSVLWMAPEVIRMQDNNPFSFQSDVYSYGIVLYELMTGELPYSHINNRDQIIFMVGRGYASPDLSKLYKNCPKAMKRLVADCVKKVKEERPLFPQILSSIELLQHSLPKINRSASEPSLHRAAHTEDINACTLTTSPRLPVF

B-Raf = B-Raf (Homo sapiens, UniProt P15056); assay: Kinase activity assay, B-Raf; assay type: biochemical; conditions: read-out: activity toward kinase B-Raf, IC50
B-Raf, sequence (P15056 whole entry): as the sequence (P15056 whole entry V600E) above, with E600V counted along it

Kit = Kit (Homo sapiens, UniProt P10721); assay: Kinase activity assay, Kit
Fms = Fms (Homo sapiens, UniProt P07333); assay: Kinase activity assay, Fms

Measured: IC50

MAP4K4, sequence (O95819 whole entry): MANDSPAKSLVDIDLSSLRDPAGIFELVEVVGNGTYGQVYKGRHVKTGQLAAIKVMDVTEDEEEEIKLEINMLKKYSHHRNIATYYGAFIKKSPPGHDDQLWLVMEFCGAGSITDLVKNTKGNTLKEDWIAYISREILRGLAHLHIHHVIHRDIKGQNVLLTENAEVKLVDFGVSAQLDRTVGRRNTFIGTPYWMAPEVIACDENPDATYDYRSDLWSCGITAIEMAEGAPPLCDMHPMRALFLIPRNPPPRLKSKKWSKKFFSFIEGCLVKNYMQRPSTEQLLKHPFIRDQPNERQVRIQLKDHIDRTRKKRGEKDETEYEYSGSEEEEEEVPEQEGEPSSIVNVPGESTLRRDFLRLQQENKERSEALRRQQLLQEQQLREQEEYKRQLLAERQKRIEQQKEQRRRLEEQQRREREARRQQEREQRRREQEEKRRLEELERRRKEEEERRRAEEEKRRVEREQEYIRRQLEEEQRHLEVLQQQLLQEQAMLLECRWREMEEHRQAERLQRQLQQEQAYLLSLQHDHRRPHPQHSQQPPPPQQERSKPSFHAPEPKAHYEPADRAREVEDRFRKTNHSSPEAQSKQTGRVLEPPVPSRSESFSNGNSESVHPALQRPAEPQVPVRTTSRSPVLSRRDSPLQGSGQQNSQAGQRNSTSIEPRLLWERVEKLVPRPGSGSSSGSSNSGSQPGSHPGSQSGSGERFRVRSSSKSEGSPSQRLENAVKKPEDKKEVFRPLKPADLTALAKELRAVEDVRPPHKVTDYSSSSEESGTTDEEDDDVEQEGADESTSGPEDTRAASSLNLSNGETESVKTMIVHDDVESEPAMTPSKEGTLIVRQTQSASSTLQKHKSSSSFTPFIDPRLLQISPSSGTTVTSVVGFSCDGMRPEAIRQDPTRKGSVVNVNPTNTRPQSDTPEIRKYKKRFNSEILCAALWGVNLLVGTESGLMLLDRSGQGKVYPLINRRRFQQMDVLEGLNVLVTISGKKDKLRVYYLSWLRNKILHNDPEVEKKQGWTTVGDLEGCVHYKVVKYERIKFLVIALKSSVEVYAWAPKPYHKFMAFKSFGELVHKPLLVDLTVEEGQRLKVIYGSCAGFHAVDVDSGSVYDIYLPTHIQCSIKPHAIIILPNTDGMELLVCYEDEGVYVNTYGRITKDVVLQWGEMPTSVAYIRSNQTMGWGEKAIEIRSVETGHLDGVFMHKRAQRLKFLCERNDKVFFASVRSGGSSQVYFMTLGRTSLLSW

Cc1cnc2[nH]cc(C(=O)c3c(F)ccc(NS(=O)(=O)c4ccccn4)c3F)c2c1 [P-2070, Pyridine-2-sulfonic acid [2,4-difluoro-3-(5-methyl-1H-pyrrolo[2,3-b]pyridine-3-carbonyl)-phenyl]-amide]
not listed: Kit | Fms
≤ 10 µM: all other assays above

CCCS(=O)(=O)Nc1cccc(S(=O)(=O)c2c[nH]c3ncc(Cl)cc23)c1 [P-2467, Propane-1-sulfonic acid [3-(5-chloro-1H-pyrrolo[2,3-b]pyridine-3-sulfonyl)-phenyl]-amide]
≤ 10 µM: MAP4K4 | TEC | B-Raf V600E | C-Raf

COc1ccnc2[nH]cc(C(=O)c3c(F)ccc(NS(=O)(=O)c4ccccc4F)c3F)c12 [P-2021, N-[2,4-Difluoro-3-(4-methoxy-1H-pyrrolo[2,3-b]pyridine-3-carbonyl)-phenyl]-2-fluoro-benzenesulfonamide]
not listed: Fms
≤ 10 µM: all other assays above

CCCS(=O)(=O)Nc1ccc(F)c(C(=O)c2c[nH]c3ncc(C(=O)OCC)cc23)c1F [P-2207, 3-[2,6-Difluoro-3-(propane-1-sulfonylamino)-benzoyl]-1H-pyrrolo[2,3-b]pyridine-5-carboxylic acid ethyl ester]
not listed: MAP4K4 | Src | C-Raf
≤ 10 µM: all other assays above

Cc1cnc2[nH]cc(C(=O)c3c(F)ccc(NS(=O)(=O)N(C)C)c3F)c2c1 [P-2382, N,N-dimethylamino-sulfonic acid [2,4-difluoro-3-(5-methyl-1H-pyrrolo[2,3-b]pyridine-3-carbonyl)-phenyl]-amide]
not listed: Kit | Fms
≤ 10 µM: all other assays above

CCCC(C)S(=O)(=O)Nc1ccc(F)c(C(=O)c2c[nH]c3ncc(OC)cc23)c1F (stereo not drawn) [P-2309, Pentane-2-sulfonic acid [2,4-difluoro-3-(5-methoxy-1H-pyrrolo[2,3-b]pyridine-3-carbonyl)-phenyl]-amide]
not listed: C-Raf | B-Raf | Fms
≤ 10 µM: all other assays above

O=C(c1c(F)ccc(NS(=O)(=O)c2cccnc2)c1F)c1c[nH]c2ncc(Cl)cc12 [P-2071, Pyridine-3-sulfonic acid [3-(5-chloro-1H-pyrrolo[2,3-b]pyridine-3-carbonyl)-2,4-difluoro-phenyl]-amide]
≤ 10 µM: MAP4K4 | TEC | Kit | Src

CCC(C)S(=O)(=O)Nc1ccc(F)c(C(=O)c2c[nH]c3ncc(C)cc23)c1F (stereo not drawn) [P-2312, Butane-2-sulfonic acid [2,4-difluoro-3-(5-methyl-1H-pyrrolo[2,3-b]pyridine-3-carbonyl)-phenyl]-amide]
not listed: B-Raf | Kit | Fms
≤ 10 µM: all other assays above
